Where two headings read alike, the source gives them in different places.
Assays:
[1] = CO release kinetics by increase of fluorescence intensity; format: physicochemical; conditions: DMSO/PBS 5:1; DMSO/PBS (pH = 7.4) 5:1 at 37° C.; read-out: t1/2 half-life for CO release (converted)
Experimental: Compound 10a was dissolved indifferent solvents including CH2Cl2 (25° C.), CH3CN (25° C.), DMSO (25° C.), DMSO/PBS (10:1, 25° C.), DMSO/PBS (5:1, 25° C.), and DMSO/PBS (5:1, 37° C.) to give a final concentration of around 100 μM, and CO release was monitored by fluorescence intensity at 450 nm. Each experiment was repeated three times independently. The CO release rate (first order reaction rate) in DCM, CH3CN, DMSO, DMSO/PBS (10:1), DMSO/PBS (5:1), and DMSO/PBS (5:1, 37° C.) were different and their individual rate constant was calculated to be 2.3±0.2, 3.6±0.4, 6.6±0.6, 7.7±0.6, 11.0±1.4 and 22.4±3.2 h^−1, respectively. […] The CO release rate increased along with the polarity of the solvent.

[2] = system: RAW 264.7 cells; experiment: Cytotoxicity of CO prodrugs and inactive products (MTT); format: cell-based, mouse; conditions: 24 h incubation
Experimental: The toxicity of compound 10b and product of compound 10b (44b) after CO release were tested on RAW 264.7 cells, which is a mouse macrophage cell line used for anti-inflammation test. Different concentrations of 10b and 44b product were added into the cell culture media (Dulbecco's Modified Eagle's Medium supplemented with 10% heat inactivated fetal bovine serum and 1% penicillin-streptomycin). All samples with different concentrations of 10b or 44b product contained 1% DMSO in the cell culture media. RAW 264.7 cells were seeded in 96-well plate one day before the experiment. The cells were then incubated with the compound for 24 hours at 37° C. with 5% CO2. The cell viability was tested by MTT assay. Basically, after 24 hours of incubation, 0.5 mg/mL MTT (3-(4,5-Dimethylthiazol-2-yl)-2,5-Diphenyltetrazolium Bromide) was added into the cell culture and incubated for 4 hours. Thereafter, the supernatant was removed and 100 μL of DMSO were added into the wells containing cells. After shaking gently for 3 minutes, absorbance at 570 nm was read by plate reader.
10a-10d, and 100 with different release rates were chosen to test their inhibitory effect against lipopolysaccharide (LPS) induced TNF-α secretion in RAW 264.7 cells. […] This was followed by the treatment of LPS for another 1 h. Then the cell culture supernatants were subjected to ELISA assay for TNF-α levels.

[3] = Determination of CO release rates (fluorescence or UV absorbance); format: physicochemical; conditions: DMSO/PBS (4:1) at 37° C.
Experimental: For CO prodrugs with naphthalene scaffold, the CO release rate is easily done by monitoring the fluorescence intensity of the cyclized product. For the others, the CO release rate was determined by employing the UV absorbance difference between the prodrugs and the cyclized product.

[4] = CO release kinetics by increase of fluorescence intensity; format: physicochemical; conditions: PBS with 1% DMSO; 1% of DMSO in PBS (pH = 7.4); read-out: t1/2 half-life for CO release (converted)

In the case of `C#CCCN(CCOC1OC(CO)C(O)C(O)C1O)C(=O)C1=C2C(=C(c3ccccc3)C1=O)c1cccc3cccc2c13` (stereo not shown) [Compound 100], the half-life [1] is reported as 126 min, the “effect on cell viability” value [2] is reported as “did not show any effect on cell viability at up to 50 μM” and the “K CO release” value [3] is reported as 0.33 ± 0.01 h⁻¹. The half-life [4] was 10.8 min.

Reference: patent publication US11420994B2, “Carbon-monoxide-releasing molecules and therapeutic applications thereof” (GEORGIA STATE UNIVERSITY RESEARCH FOUNDATION, INC., priority 2016, dated 2022)
